Like-named read-outs stand apart in the source and are kept apart here.
Legend:
Test in all cases: MTT cell proliferation assay
Type in all cases: cell-based
Z138 cells = settings: Homo sapiens, Z-138, Z138 cells, approximately 64-72 hours incubation
Summary of the method: (§1)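 Cytotoxicity was measured by MTT: OD490 of the solubilized formazan after roughly 4 h with MTT reagent, reported as mean percent inhibition relative to the negative control. Test compounds covered eight concentrations between 1 nM and 30 μM, added to 5,000–10,000 cells per well that had attached overnight.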

3T3 cells = settings: Mus musculus, NIH3T3, approximately 64-72 hours incubation
Summary of the method: as §1

MS751 cells = settings: Homo sapiens, MS751, MS751 cells, approximately 64-72 hours incubation
Summary of the method: as §1

[1] = read-out: MTT Assay IC50 MS-751
[2] = read-out: MTT Assay IC50, Z-138
[3] = read-out: MTT Assay IC50, MS-751

Row | Compound | IC50 (Z138 cells; read-out: MTT Assay IC50 Z-138) [nM] | IC50 (3T3 cells; read-out: MTT Assay IC50 3T3) [nM] | IC50 (MS751 cells; [1]) [nM] | IC50 (Z138 cells; [2]) [nM] | IC50 (3T3 cells; read-out: MTT Assay IC50, 3T3) [nM] | IC50 (MS751 cells; [3]) [nM]
1 | Nc1ccc(/C=C/C(=O)NCc2cc3cc(-c4cc(C(=O)N5CCOCC5)c(F)cn4)cc(Cl)c3o2)cn1 [Compound 588, (E)-3-(6-aminopyridin-3-yl)-N-((7-chloro-5-(5-fluoro-4-(morpholine-4-carbonyl)pyridin-2-yl)benzofuran-2-yl)methyl)acrylamide] | < 100 | 100 to 5000 | < 100 | – | – | –
2 | Nc1ccc(/C=C/C(=O)NCc2cc3cc(-c4ccc(C(=O)N5CCC(F)(F)CC5)cc4F)cc(-c4cccc(Cl)c4)c3o2)cn1 [Compound 756, (E)-3-(6-aminopyridin-3-yl)-N-((7-(3-chlorophenyl)-5-(4-(4,4-difluoropiperidine-1-carbonyl)-2-fluorophenyl)benzofuran-2-yl)methyl)acrylamide] | – | – | – | < 100 | > 10000 | < 100
3 | Nc1ccc(/C=C/C(=O)NCc2cc3cc(-c4ccc(C(=O)N5CC(F)(F)C5)cn4)cc(C(F)(F)F)c3o2)cn1 [Compound 645, (E)-3-(6-aminopyridin-3-yl)-N-((5-(5-(3,3-difluoroazetidine-1-carbonyl)pyridin-2-yl)-7-(trifluoromethyl)benzofuran-2-yl)methyl)acrylamide] | < 100 | > 10000 | 100 to 5000 | – | – | –
4 | Nc1ccc(/C=C/C(=O)NCc2cc3cc(-c4ccc(C(=O)N5CCOCC5)cn4)cc(-c4ccc(F)cc4)c3o2)cn1 [Compound 568, (E)-3-(6-aminopyridin-3-yl)-N-((7-(4-fluorophenyl)-5-(5-(morpholine-4-carbonyl)pyridin-2-yl)benzofuran-2-yl)methyl)acrylamide] | < 100 | 100 to 5000 | < 100 | – | – | –
5 | Nc1ccc(/C=C/C(=O)NCc2cc3cc(-c4ccc(C(=O)N5CCC(F)(F)C5)cc4)cc(C(F)(F)F)c3o2)cn1 [Compound 603, (E)-3-(6-aminopyridin-3-yl)-N-((5-(4-(3,3-difluoropyrrolidine-1-carbonyl)phenyl)-7-(trifluoromethyl)benzofuran-2-yl)methyl)acrylamide] | 100 to 5000 | > 10000 | 100 to 5000 | – | – | –
6 | Nc1ccc(/C=C/C(=O)NCc2cc3cc(-c4ccc(C(=O)N5CCCNCC5)cc4)cc(C(F)(F)F)c3o2)cn1 [Compound 573, (E)-N-((5-(4-(1,4-diazepane-1-carbonyl)phenyl)-7-(trifluoromethyl)benzofuran-2-yl)methyl)-3-(6-aminopyridin-3-yl)acrylamide] | < 100 | > 10000 | < 100 | – | – | –
7 | Nc1ccc(/C=C/C(=O)NCc2cc3cc(-c4ccc(C(=O)N5CCC(O)(C(F)(F)F)CC5)cc4)cc(C(F)(F)F)c3o2)cn1 [Compound 609, (E)-3-(6-aminopyridin-3-yl)-N-((5-(4-(4-hydroxy-4-(trifluoromethyl)piperidine-1-carbonyl)phenyl)-7-(trifluoromethyl)benzofuran-2-yl)methyl)acrylamide] | 100 to 5000 | > 10000 | 100 to 5000 | – | – | –
8 | CC(c1ccc(-c2cc(-c3ccc(F)cc3)c3oc(CNC(=O)/C=C/c4ccc(N)nc4)cc3c2)cc1)N1CCC(F)(F)CC1 (stereo not drawn) [Compound 760, (E)-3-(6-aminopyridin-3-yl)-N-((5-(4-(1-(4,4-difluoropiperidin-1-yl)ethyl)phenyl)-7-(4-fluorophenyl)benzofuran-2-yl)methyl)acrylamide] | – | – | – | 100 to 5000 | > 10000 | 100 to 5000
9 | O=C(/C=C/c1cccnn1)NCc1cc2cc(-c3ccc(C(=O)N4CCOCC4)cc3)cc(Cl)c2o1 [Compound 540, (E)-N-((7-chloro-5-(4-(morpholine-4-carbonyl)phenyl)benzofuran-2-yl)methyl)-3-(pyridazin-3-yl)acrylamide] | 5000 to 10000 | 5000 to 10000 | 5000 to 10000 | – | – | –
10 | COc1ccc(Cl)cc1-c1cc(-c2ccc(C(=O)N3CCC(F)(F)CC3)cc2)cc2cc(CNC(=O)/C=C/c3ccc(N)nc3)oc12 [Compound 730, (E)-3-(6-aminopyridin-3-yl)-N-((7-(5-chloro-2-methoxyphenyl)-5-(4-(4,4-difluoropiperidine-1-carbonyl)phenyl)benzofuran-2-yl)methyl)acrylamide] | – | – | – | < 100 | < 100 | < 100
